Measured values taken from patent US8304420B2, “Substituted quinazolines for reducing platelet count” (Shire LLC, priority 2006, dated 2012).
pIC50: −log10 of the molar value. Read-outs that look alike come from different tables or passages of the source. Marks after values point to notes of the source that are not given here.

What was measured:
[1] = tested on: differentiation of human CD34+ stem cells into megakaryocytes; assay: In vitro anti-megakaryocytic activity (model of megakaryocytopoiesis); assay type: cell-based
Excerpt: Such activity may be assessed using a well established model. Assessment of the in vitro anti-megakaryocytic activity—and potentially therefore the platelet lowering capability—of the anagrelide prodrugs can be determined using the model of megakaryocytopoiesis (Cohen-Solal et al., Thromb. Haemost. 1997, 78:37-41 and Cramer et al, Blood, 1997, 89:2336-46). This involves examining the differentiation of human CD34^+ stem cells into megakaryocytes which ultimately give rise to blood platelets.

[2] = Solubilities of salts in three solvents (Example 2); details: for solubility at 3 min: 20 °C, thermodynamic from solid
Description: (§1) The solubilities of various salts was investigated in three solvents [distilled water (pH 5.0), 50 mM ammonium formate (pH 7.9) and 0.1 M hydrochloric acid (pH0.6)]. An excess of the salt was suspended in the chosen medium and sonicated for 3 minutes. The mixture was centrifuged for 10 minutes, the supernatant liquid was collected and the solubility was measured.

PDEIII = PDEIII inhibition; assay type: biochemical; details: more potent than anagrelide itself
[3] = Plasma exposure to metabolite after treatment with anagrelide; assay type: in vivo
[4] = Aqueous solubility / solubility-pH profile
[5] = Conversion of prodrug to anagrelide in human plasma (LC/MS-MS); assay type: in vitro ADME; details: spiked 100 ng/mL, room temperature, first point of measurement immediately after mixing
Description: Such prodrugs are likely to be extremely rapidly and completely cyclised in plasma to the closed ring 3-alkylanagrelide analogues. […] Human plasma was spiked with anagrelide prodrug (final concentration 100 ng/mL). Immediately after mixing, and at 15, 30, 45 and 60 minutes afterward samples were analysed for anagrelide prodrug and anagrelide.

[6] = dog, in vivo
Description: The potential benefit of improved water solubility on the absorption of these open-ring analogues was shown in a comparative bioavailability study in the dog. Using the unsubstituted ethyl-5,6-dichloro-3,4-dihydro-2-(1H)-iminoquinazoline-3-acetate HBr as a model compound, a comparison was made of the systemic availability of anagrelide when given as this compound or as anagrelide itself in equimolar doses (7.7 & 6.1 mg/kg respectively).
The metabolite-to-drug exposure ratio after anagrelide was 1.5 compared to 0.9 after the prodrug.
The lesser variability was consistent with more efficient absorption. This study illustrated the potential benefits of the open-ring prodrugs to improve absorption.

physchem = details: 20 °C, pH 5, water, thermodynamic from solid
Description: as §1

[7] = Radiolabelling study in humans, oral 14C-labelled drug; assay type: in vivo
Description: Anagrelide HCl itself is a poorly soluble drug substance. In the pH range of 4-8, the solubility is less than 10 μg/mL. […] Thus over much of the physiological pH range the drug has very poor aqueous solubility. Even material dissolving in the stomach at pH 1-2 may precipitate in the duodenum at pH 5-6. This presents potential problems for the quantitative absorption from the most likely site for absorption, namely the upper small intestine. As a consequence anagrelide is micronised prior to filling into capsules for clinical use to ensure maximal absorption. […] However for those patients requiring larger doses either as the result of relative insensitivity to the drug, higher first-pass pre-systemic metabolism or greater body weight, the possibility exists for incomplete absorption. This would be expected to lead to increased variability in attained plasma drug concentrations and consequential variability in patient response.

[8] = 50 mM ammonium formate, pH 7.9, aqueous buffer
[9] = 0.1 M hydrochloric acid, pH 0.6, simulated gastric fluid
[10] = estimated from the solubility/pH profile

With CC1(C)C(=O)NC2=Nc3ccc(Cl)c(Cl)c3CN21 [3, 3, dimethyl anagrelide] the pIC50 [1] was roughly 6.80.
Compound Br.CC1(C)C(=O)NC2=Nc3ccc(Cl)cc3CN21 has a solubility at 3 min [2, 8] of 4 µg/mL, a solubility at 3 min [2, 9] of 215 µg/mL and a solubility at 3 min ([2]; distilled water, pH 5, water) of 20 µg/mL.
In the case of Br.COC(=O)C1(N2Cc3c(ccc(Cl)c3Cl)N=C2N)CC1, the solubility at 3 min [2, 9] was 6430 µg/mL, the “Solubility, Ammonium formate (50 mM, pH 7.9)” value ([2]; ca. 20° C., 50 mM ammonium formate, pH 7.9) was “unstable” and the solubility at 3 min ([2]; distilled water, pH 5, water) was 7060 µg/mL.
For O=C1NC2=Nc3ccc(Cl)c(Cl)c3CN2C1O (stereo not drawn) [3-hydroxyanagrelide], the “potency as inhibitor of PDEIII relative to anagrelide” value (PDEIII) was roughly 40 fold and the “plasma exposure to metabolite relative to the drug itself” value [3] was “three times greater”.
For CC(C)(C(=O)[O-])N1Cc2c(ccc(Cl)c2Cl)N=C1N.[Na+], the solubility at 3 min [2, 8] was 16 µg/mL, the solubility at 3 min [2, 9] was 46 µg/mL and the solubility at 3 min ([2]; distilled water, pH 5, water) was 7340 µg/mL.
With Br.CCOC(=O)CN1Cc2c(ccc(Cl)c2Cl)NC1=N [ethyl-5,6-dichloro-3,4-dihydro-2-(1H)-iminoquinazoline-3-acetate HBr] the solubility ([4]; distilled water) was roughly 5500 µg/mL, the “prodrug found in human plasma (conversion to anagrelide)” value [5] was “no prodrug could be found” and the “AUC for anagrelide, range across dogs” value ([6]; po) was 367-1470 ng.hmL^−1. For the same compound, the “Cmax for anagrelide, range across dogs” value ([6]; po) was 170-418 ngmL^−1, the metabolite-to-drug exposure ratio ([6]; po) was 0.9 and the “fold higher Cmax for anagrelide than when the drug itself was administered” value ([6]; po, 6.1 mg/kg) was “approximately 17 fold”. For the same compound, the “mean fold higher AUC for anagrelide than when the drug itself was administered” value ([6]; po, 6.1 mg/kg) was 16 fold.
Compound Cl.O=C1CN2Cc3c(ccc(Cl)c3Cl)N=C2N1 has a solubility at 3 min [2, 8] of 11 µg/mL, a solubility at 3 min [2, 9] of 169 µg/mL and a solubility at 3 min (physchem) of 10 µg/mL.
In the case of Cl.O.O=C1CN2Cc3c(ccc(Cl)c3Cl)N=C2N1 [anagrelide, 6,7-Dichloro-1,5-dihydroimidazo[2,1-b]-quinazolin-2(3H)-one hydrochloride monohydrate], the pIC50 ([1]; hydrochloride monohydrate) was roughly 7.57, the absorption ([7]; implied from urinary recovery after oral 1 mg) was greater than 75% and the “administered radioactivity recovered in the urine” value ([7]; oral 1 mg 14C-labelled drug) was greater than 75%. The “dissociation constant pKa1” value [4, 10] was 2.9, the “dissociation constant pKa2” value [4, 10] was 9.8 and the “AUC for anagrelide, range across dogs” value ([6]; po) was 21.6-188 ng.hmL^−1. The “Cmax for anagrelide, range across dogs” value ([6]; po) was 9.5-44.3 ngmL^−1, the inherent absorption ([6]; male, 6.1 mg/kg) was less than 6.25% and the metabolite-to-drug exposure ratio ([6]; male, po) was 1.5. For the same compound, the “AUC0-t of 3-hydroxy anagrelide, mean” value ([6]; male, po, 6.1 mg/kg) was 128 ng·h/mL, the “AUCinfin of 3-hydroxy anagrelide, mean” value ([6]; male, po, 6.1 mg/kg) was 79.9 ng·h/mL and the “Cmax of 3-hydroxy anagrelide, mean” value ([6]; male, po, 6.1 mg/kg) was 24.9 ng/mL. For the same compound, the “Tmax of 3-hydroxy anagrelide, median” value ([6]; male, po, 6.1 mg/kg) was 1.5^b hours and the “t½ of 3-hydroxy anagrelide, calculated as ln2/(mean rate constant)” value ([6]; male, po, 6.1 mg/kg) was 2.6^e hours.
Br.O=C1NC2=Nc3ccc(Cl)c(Cl)c3CN2C12CC2 gave a solubility at 3 min [2, 8] of 1 µg/mL, a solubility at 3 min [2, 9] of 35 µg/mL and a solubility at 3 min ([2]; distilled water, pH 5, water) of 2 µg/mL.
